Tests used:
Type in all cases: biochemical
CePRMT7 = molecular target: T1, CePRMT7 (Caenorhabditis elegans, UniProt Q9XW42); assay: Radioisotope-based assay (SDS-PAGE, fluorography, densitometry), CePRMT7; settings: substrate HsH2B, 15 °C, read-out: % CePRMT7 residual activity
T1 construct: made in house; host or cells: E. coli
Method: (§1) Based on these outcomes, we resolved to explore the effect on the capability to inhibit PRMT9 enzymatic activity of further reduction of the distance between the pharmacophoric moieties. […] After the experiment was repeated with 100, 250, and 500 μM concentrations of each inhibitor, half inhibition was observed only at a concentration of roughly 250 μM (Figure 4d).
(§2) […]. The experiments were performed as reported in the Experimental procedures section. GST-HsPRMT9 (a) and GST-HsPRMT7 (b) were incubated with human GST-SF3B2 (401–550) peptide or recombinant HsH2B, respectively (1 μg of enzyme, 5 μg of substrate), 0.14 μM [^3H]SAM, and the indicated concentrations of tested compounds at the corresponding optimal reaction temperature (37 °C for HsPRMT9, 15 °C for HsPRMT7). C. elegans GST-tagged enzymes PRMT9 (c) and PRMT7 (d) were incubated with GST-CeSFTB-2 (99–248) fragment or recombinant HsH2B, respectively (1 μg of enzyme, 5 μg of substrate), 0.14 μM [^3H]SAM, and the indicated concentrations of tested compounds at the corresponding optimal reaction temperature (25 °C for CePRMT9, 15 °C for CePRMT7). After SDS-PAGE, the gels were treated as previously described[48] and densitometry analysis was done using ImageJ software, and data was plotted as normalized activity to the no inhibitor controls.
(§3) Human PRMT9, C. elegans PRMT9, human PRMT7, and C. elegans PRMT7 plasmids were sequenced, expressed in E. coli as GST-fusion proteins, and purified as previously described.[48] Substrates were also sequenced and purified as described [human GST-SF3B2 (401–550);[13]C. elegans SFTB-2;[48] human histone H2B (New England Biolabs, M2505S)]. Xenopus laevis histone H2B was expressed in E. coli and purified similarly to what was previously reported by Luger et al.[72]
(§4) Reactions consisting of approximately 1 μg of enzyme (human or C. elegans GST-tagged enzymes PRMT9 and PRMT7), reacted with approximately 5 μg of substrate [for human PRMT9, human GST-SF3B2 401–550 fragment; C. elegans PRMT9 with C. elegans GST-SFTB-2 (99–248) fragment, or recombinant human histone H2B from New England Biolabs (M2505S)], were incubated for the indicated time in reaction buffer {50 mM potassium HEPES buffer, 10 mM NaCl, 1 mM dithiothreitol (DTT), pH 8.0 with 0.7 μM S-adenosyl-L-[methyl-^3H]methionine (^3H-AdoMet, PerkinElmer Life Sciences, 82.7 Ci/mmol, 0.55 mCi/mL in 10 mM H2SO4/EtOH [9:1 (v/v)])} in a final reaction volume of 60 μL. Each reaction was incubated at the corresponding optimal reaction temperature (37 °C for human PRMT9, 25 °C for C. elegans PRMT9, and 15 °C for C. elegans and human PRMT7 enzymes. MTA was dissolved in water, and a wavelength scan was taken to determine the final concentration using the extinction coefficient. The final concentrations used are indicated in the figure legends. […]. EML734, EML736, and EML709 were also dissolved in DMSO, and further dilutions were made in DMSO for the working stocks. For controls, no inhibitor reactions were created by the addition of the respective solvent (water for MTA and DMSO for EPZ015666 and EML inhibitors).
(§5) After the reaction incubations with the various concentrations of inhibitors, the reactions were quenched by adding 0.2 volume of 5× SDS sample loading buffer, and subsequently, the reactions were run on a 12.6% polyacrylamide Tris gel. To collect the radioactive signal, the gels were then treated in the same way as previously described.[48]
(§6) After various exposures were collected to ensure linear detection, densitometry analysis was done using ImageJ software, and data were plotted as normalized activity to the no inhibitor controls.

GST-HsPRMT9 = molecular target: T2, GST-HsPRMT9 (Homo sapiens, UniProt Q6P2P2); assay: Radioisotope-based assay (SDS-PAGE, fluorography, densitometry), HsPRMT9; settings: substrate GST-SF3B2 (401–550), 37 °C, read-out: % HsPRMT9 residual activity
T2 construct: made in house; host or cells: E. coli
T2 sequence (Q6P2P2 1-845): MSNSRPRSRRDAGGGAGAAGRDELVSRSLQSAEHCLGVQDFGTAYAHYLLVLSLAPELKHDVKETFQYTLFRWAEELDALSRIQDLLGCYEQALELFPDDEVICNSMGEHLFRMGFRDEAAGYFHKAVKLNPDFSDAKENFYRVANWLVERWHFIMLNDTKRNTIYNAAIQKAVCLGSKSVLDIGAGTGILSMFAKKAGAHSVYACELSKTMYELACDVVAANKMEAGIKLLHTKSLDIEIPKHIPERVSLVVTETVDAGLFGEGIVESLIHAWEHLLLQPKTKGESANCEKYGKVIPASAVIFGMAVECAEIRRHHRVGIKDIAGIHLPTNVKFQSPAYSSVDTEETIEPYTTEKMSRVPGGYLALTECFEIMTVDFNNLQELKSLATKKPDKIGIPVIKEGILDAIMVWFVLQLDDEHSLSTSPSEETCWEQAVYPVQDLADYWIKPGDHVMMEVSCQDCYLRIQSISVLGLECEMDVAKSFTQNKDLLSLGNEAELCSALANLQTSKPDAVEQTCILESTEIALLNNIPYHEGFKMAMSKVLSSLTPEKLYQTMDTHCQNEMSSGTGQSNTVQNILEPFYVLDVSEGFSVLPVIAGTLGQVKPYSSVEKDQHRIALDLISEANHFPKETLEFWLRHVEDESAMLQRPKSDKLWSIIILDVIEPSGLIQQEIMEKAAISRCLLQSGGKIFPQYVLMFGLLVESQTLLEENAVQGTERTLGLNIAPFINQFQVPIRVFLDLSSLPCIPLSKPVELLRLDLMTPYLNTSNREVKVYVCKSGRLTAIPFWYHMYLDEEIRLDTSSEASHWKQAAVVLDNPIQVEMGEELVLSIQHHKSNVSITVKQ
Method: as §1, §2, §3, §4, §5, §6

PRMT3 = molecular target: T3, PRMT3 (Homo sapiens, UniProt O60678); assay: HotSpot radioisotope-based filter assay, PRMT3
T3 construct: PRMT3 (residues 2–531, C-terminus); with an N-terminal His-tag; His (N); purchased Reaction Biology Corporation
Method: Then, ^3H-SAM (final concentration of 1 μM) was delivered into the reaction mixture to initiate the reaction. After incubation for 60 min at 30 °C, the reaction mixture was delivered to filter-paper for detection (as assessed by scintillation). Data were analyzed using Excel and GraphPad Prism 6.0 software (GraphPad Software Inc., San Diego, CA) for IC50 curve fits using sigmoidal dose vs response - variable slope (four parameters) equations.

T1 sequence (Q9XW42 whole entry): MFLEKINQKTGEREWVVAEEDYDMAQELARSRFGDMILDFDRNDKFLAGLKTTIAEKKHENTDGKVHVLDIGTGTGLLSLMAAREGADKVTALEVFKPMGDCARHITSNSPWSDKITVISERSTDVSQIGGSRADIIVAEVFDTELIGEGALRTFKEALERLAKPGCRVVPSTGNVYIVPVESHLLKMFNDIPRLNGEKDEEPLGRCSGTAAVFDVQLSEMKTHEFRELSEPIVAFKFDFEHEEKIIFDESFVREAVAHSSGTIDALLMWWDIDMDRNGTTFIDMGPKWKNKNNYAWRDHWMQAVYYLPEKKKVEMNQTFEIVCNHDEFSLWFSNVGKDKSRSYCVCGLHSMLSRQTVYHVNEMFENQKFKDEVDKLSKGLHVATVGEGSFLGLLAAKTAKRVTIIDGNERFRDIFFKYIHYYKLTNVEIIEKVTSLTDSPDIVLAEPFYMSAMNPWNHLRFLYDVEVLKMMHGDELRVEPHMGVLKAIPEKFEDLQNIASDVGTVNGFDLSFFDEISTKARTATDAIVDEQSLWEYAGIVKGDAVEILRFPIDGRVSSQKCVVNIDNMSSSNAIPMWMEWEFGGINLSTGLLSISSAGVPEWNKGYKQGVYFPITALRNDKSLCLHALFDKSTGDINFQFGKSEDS
T3 sequence (O60678 2-531): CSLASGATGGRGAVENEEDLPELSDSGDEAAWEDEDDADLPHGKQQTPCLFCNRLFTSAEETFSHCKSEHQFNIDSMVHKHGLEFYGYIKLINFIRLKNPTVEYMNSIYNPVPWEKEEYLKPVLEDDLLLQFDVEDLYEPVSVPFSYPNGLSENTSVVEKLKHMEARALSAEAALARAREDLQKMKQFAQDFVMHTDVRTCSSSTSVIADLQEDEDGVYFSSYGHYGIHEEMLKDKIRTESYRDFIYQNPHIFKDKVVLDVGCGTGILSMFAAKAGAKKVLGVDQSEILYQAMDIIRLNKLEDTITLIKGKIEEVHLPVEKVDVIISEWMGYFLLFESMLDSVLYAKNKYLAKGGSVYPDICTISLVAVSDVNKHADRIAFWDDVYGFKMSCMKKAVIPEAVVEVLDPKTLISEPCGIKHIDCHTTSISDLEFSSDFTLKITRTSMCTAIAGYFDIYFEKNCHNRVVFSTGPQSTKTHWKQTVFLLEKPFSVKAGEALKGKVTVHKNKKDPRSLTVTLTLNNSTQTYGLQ

remaining activity at 100 µM (CePRMT7) [%]	remaining activity at 250 µM (CePRMT7) [%]	remaining activity at 500 µM (CePRMT7) [%]	remaining activity at 5 µM (GST-HsPRMT9) [%]	remaining activity at 25 µM (GST-HsPRMT9) [%]	remaining activity at 50 µM (GST-HsPRMT9) [%]	remaining activity at 100 µM (GST-HsPRMT9) [%]	IC50 (PRMT3; 5 μM histone H4, 3H-SAM 1 μM) [µM]	selectivity index for PRMT7 over PRMT3 (PRMT3; Figure 2, from IC50 values of ref 31) [fold]	SMILES
19.6	12.5	0.92	30.4	3.42	1.37	0.3	–	–	COC(=O)c1cc(O)c2cc(NC(=O)NCCCNC(=N)NC[C@H]3O[C@@H](n4cnc5c(N)ncnc54)[C@H](O)[C@@H]3O)ccc2c1 [1a]
–	–	–	–	–	–	–	14.9	–	COC(=O)c1cc(O)c2cc(NC(=O)NCCCNC(=N)NC[C@H]3O[C@@H](n4cnc5c(N)ncnc54)[C@H](O)[C@@H]3O)cc(C(F)(F)F)c2c1 [1j, Methyl 6-(3-(3-(3-(((2R,3S,4R,5R)-5-(6-Amino-9H-purin-9-yl)-3,4-dihydroxytetrahydrofuran-2-yl)methyl)guanidino)propyl)ureido)-4-hydroxy-8-(trifluoromethyl)-2-naphthoate]
26.1	6.92	2.32	32	6.5	0.52	0.34	–	97	COC(=O)c1cc(O)c2cc(NC(=O)NCCCCCNC(=N)NC[C@H]3O[C@@H](n4cnc5c(N)ncnc54)[C@H](O)[C@@H]3O)ccc2c1 [1c]
34.8	8.62	5.19	46	13.8	6.15	1.64	–	–	COC(=O)c1cc(O)c2cc(NC(=O)NCCCCNC(=N)NC[C@H]3O[C@@H](n4cnc5c(N)ncnc54)[C@H](O)[C@@H]3O)ccc2c1 [1b]

Reference: PMC10578352, “Identification of a Protein Arginine Methyltransferase 7 (PRMT7)/Protein Arginine Methyltransferase 9 (PRMT9) Inhibitor” (Journal of Medicinal Chemistry, 2023)
